Measured values as given in the supplement of paper PMC3493320.

Tested on: NCI-H295R
Assay: IC50 (antiproliferative, ATP content)
Settings: 48 h
How it was run: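 Adrenocortical carcinoma cells (1500 per well) were seeded in serum-free ITS-supplemented DMEM in 1536-well plates and cultured overnight. Library compounds were then pin-transferred at 8 final concentrations from 0.6 nM to 46 µM, and plates were kept 48 h at 37 °C, 5% CO2. ATP was read as CellTiter-Glo luminescence after 20 min at room temperature and normalised to vehicle (0%) and positive control (100% inhibition). IC50 came from four-parameter logistic fits; compounds with no concentration response were recorded as above the top dose.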

SMILES | IC50
O=[C@@](OCN2C(N(CC#C)CC2=O)=O)[C@H]1C(C)(C)[C@@H]1\C=C(C)/C | > 46 µM
O=CC=O | > 46 µM
OC(C)=O.NC(CNC([C@H](CCCNC(N)=N)N[C@]([C@@H]1CCCN1[C@]([C@H](CSSCCC(N[C@@H](CC4=CC=C(O)C=C4)C3=O)=O)NC([C@H](CC(N)=O)NC([C@@H](NC([C@@H](N3)CC2=CC=CC=C2)=O)CCC(N)=O)=O)=O)=O)=O)=O)=O | > 46 µM
CC[N+](CC)(CC)CCOc1cccc(OCC[N+](CC)(CC)CC)c1OCC[N+](CC)(CC)CC.[I-].[I-].[I-] | > 46 µM
COC(=O)[C@H]1[C@H]2C[C@H]3c4[nH]c5ccccc5c4CCN3C[C@H]2CC[C@@H]1O | > 46 µM
CC(=O)[C@H]1CC[C@H]2[C@@H]3C[C@H](C)C4=CC(=O)CC[C@]4(C)[C@H]3[C@@H](O)C[C@]12C | > 46 µM
NC1CCCCC1.NC1CCCCC1.O=P(O)(O)OC[C@H](O)CO | > 46 µM
CC(=O)Oc1c(C)cc(OCC(O)CNC(C)C)c(C)c1C (stereo unspecified) | > 46 µM
CS(=O)(=O)OCC(O)C(O)COS(C)(=O)=O (stereo unspecified) | > 46 µM
O=C(O)c1ccccc1C(=O)Nc1ccc(S(=O)(=O)Nc2nccs2)cc1 | > 46 µM
CCCCCC[C@@H](O)C/C=C\CCCCCCCC(=O)[O-].[K+] | > 46 µM
CC(C)(N)Cc1ccc(Cl)cc1.Cl | > 46 µM
O[C@@H]([C@H](O)[C@H](O)CBr)[C@H](O)CBr | > 46 µM
CC(=O)Oc1cccc(C)c1 | > 46 µM
CCOc1ccc2c(c1)C(C)=CC(C)(C)N2 | > 46 µM
CC(=O)N/N=C/c1ccc([N+](=O)[O-])o1 | > 46 µM
CC(=O)N[C@@H](CS)C(=O)O | > 46 µM
Cc1cccc(C)c1NC1=NCCCS1 | > 46 µM
N[C@@H](Cc1ccc(O)cc1)C(=O)O | > 46 µM
O=C2N1[C@]([C@@]([H])2N)([H])SC(C)(C)[C@@H]1[C@@](O)=O | > 46 µM
Cl.O=C(O)c1cn(C2CC2)c2cc(N3CCNCC3)c(F)cc2c1=O | > 46 µM
COc1ccc(C2CNC(=O)C2)cc1OC1CCCC1 (stereo unspecified) | > 46 µM
Cc1cccc(Nc2ccncc2S(=O)(=O)NC(=O)NC(C)C)c1 | > 46 µM
CC[C@H]1OC(=O)[C@H](C)[C@@H](O[C@H]2C[C@@](C)(OC)[C@@H](O)[C@H](C)O2)C(C)[C@@H](O[C@@H]2O[C@H](C)C[C@H](N(C)C)[C@H]2O)[C@](C)(OC)C[C@@H](C)C(=O)[C@H](C)[C@@H](O)[C@]1(C)O (stereo partly specified) | > 46 µM
O=C(O)C(N12)=[C@@]([C@@H]3OCCC3)S[C@]1([H])[C@]([C@@H](C)O)([H])C2=O | > 46 µM
Cc1cccc(C(C)c2c[nH]cn2)c1C (stereo unspecified) | > 46 µM

SMILES | IC50
COC(=O)CCC(=O)CN.Cl | > 46 µM
CS(=O)(=O)c1ccc([C@@H](O)[C@@H](CO)NC(=O)C(Cl)Cl)cc1 | > 46 µM
CN(C)CCc1c[nH]c2ccc(CS(=O)(=O)N3CCCC3)cc12 | > 46 µM
Oc1ccc(C2CNCCc3c2cc(O)c(O)c3Cl)cc1 (stereo unspecified) | > 46 µM
N#C/C(=C1\SCC(c2ccccc2Cl)S1)n1ccnc1 (stereo unspecified) | > 46 µM
Cc1ncsc1CCCl | > 46 µM
CCN(CC)CCOC(=O)c1ccc(N)cc1.Cl | > 46 µM
CC(C(=O)O)c1ccc(CC2CCCC2=O)cc1 (stereo unspecified) | > 46 µM
O=S(=O)(O)NC1CCCCC1 | > 46 µM
CC(=O)NS(=O)(=O)c1ccc(N)cc1 | > 46 µM
NC(=O)OC[C@@H]1[C@H](NC(=O)/C(=N\OCC(=O)[O-])c2csc(N)n2)C(=O)N1S(=O)(=O)[O-].[Na+].[Na+] | > 46 µM
CCCN(CCC)CCc1cccc2c1CC(=O)N2 | > 46 µM
COc1ccc(CN2CCNCC2)c(OC)c1OC.Cl.Cl | > 46 µM
O=C([C@@H](N(C)[C@]([C@H](CCC4)N4C([C@@H](CC)N5)=O)=O)CC2=CC=CC=C2)N(CCC1=O)C(C1)C(N[C@H](C(OC(C)[C@H](NC(C6=NC=CC=C6O)=O)C5=O)=O)C3=CC=CC=C3)=O (stereo partly specified) | > 46 µM
O=P([O-])(O)C(Cl)(Cl)P(=O)([O-])O.[Na+].[Na+] | > 46 µM
CC(=O)N[C@@H](CCC(=O)O)C(=O)O | > 46 µM
O=C(Oc1cccc2cccnc12)c1ccccc1 | > 46 µM
COC(=O)c1cncn1C(C)c1ccccc1.Cl (stereo unspecified) | > 46 µM
Cc1ccc(/C(=C\CN2CCCC2)c2ccccn2)cc1 | > 46 µM
NC(=O)c1cc[n+](CC2=C(C(=O)[O-])N3C(=O)[C@@H](NC(=O)[C@H](c4ccccc4)S(=O)(=O)[O-])[C@@H]3SC2)cc1.[Na+] | > 46 µM
Cc1ccc(C(=O)C(C)CN2CCCCC2)cc1.Cl (stereo unspecified) | > 46 µM
CCCCCC(N)=O | > 46 µM
CCC1Nc2cc(Cl)c(S(N)(=O)=O)cc2S(=O)(=O)N1 (stereo unspecified) | > 46 µM
Nc1ccc(S(=O)(=O)c2ccc(N)cc2)cc1 | > 46 µM
COC(C)(C)CCCC(C)C/C=C/C(C)=C/C(=O)OC(C)C (stereo unspecified) | > 46 µM
Cc1nc2ccccn2c(=O)c1CCN1CCC(C(=O)c2ccc(F)cc2)CC1 | > 46 µM

SMILES | IC50
CCC1(CC)C(=O)C=CNC1=O | > 46 µM
CN1CC(=O)N=C1NC(=O)Nc1cccc(Cl)c1 | > 46 µM
C#C[C@]1(O)CC[C@H]2[C@@H]3CCc4cc(OC)ccc4[C@H]3CC[C@@]21C | > 46 µM
CC1(C)S[C@@H]2[C@H](NC(=O)[C@H](NC(=O)N3CCN(S(C)(=O)=O)C3=O)c3ccccc3)C(=O)N2[C@H]1C(=O)O | > 46 µM
O[C@H]([C@@]1=CC=CC=C1)[C@H](C)N(C)C | > 46 µM
NCC[C@H](O)C(=O)N[C@@H]1C[C@H](N)[C@@H](O[C@H]2O[C@H](CN)[C@@H](O)[C@H](O)[C@H]2N)[C@H](O[C@@H]2O[C@H](CO)[C@H](O)[C@H]2O)[C@H]1O.O=S(=O)(O)O.O=S(=O)(O)O | > 46 µM
CCCC1C(=O)N2C(N(C)C)=Nc3ccc(C)cc3N2C1=O (stereo unspecified) | > 46 µM
O=S(=O)([O-])CCS.[Na+] | > 46 µM
O=[N+]([O-])c1ccc([As](=O)(O)O)cc1 | > 46 µM
CCCCC(CC)COC(=O)C=Cc1ccc(OC)cc1 (stereo unspecified) | > 46 µM
CCCCNc1ccc(C(=O)OCCN(C)C)cc1.Cl | > 46 µM
CC(C)NNC(=O)c1ccncc1.O=S(=O)(O)O | > 46 µM
CC1(C)S[C@@H]2[C@H](/N=C/N3CCCCCC3)C(=O)N2[C@H]1C(=O)O | > 46 µM
O=C(O)/C=C/c1ccccc1 | > 46 µM
OC[C@@H](O)[C@@H](O[C@@H]1O[C@H](CO)[C@H](O)[C@H](O)[C@H]1O)[C@H](O)[C@@H](O)CO | > 46 µM
O=[C@@](OC)[C@H]([C@H]3OC)[C@@]2([H])C[C@](N4C[C@]([H])2C[C@H]3OC(C=CC6=CC(OC)=C(OC)C(OC)=C6)=O)([H])C1=C(CC4)C(C=C5)=C(C=C5OC)N1 | > 46 µM
O=C(NCCc1c[nH]c2ccccc12)c1cccnc1 | > 46 µM
CCc1nnc(NS(=O)(=O)c2ccc(N)cc2)s1 | > 46 µM
Cc1cc(C)cc(OCC2CNC(=O)O2)c1 (stereo unspecified) | > 46 µM
Nc1ncn([C@H]2C[C@H](O)[C@@H](CO)O2)c(=O)n1 | > 46 µM
Cl.NC(CO)C(=O)NNCc1ccc(O)c(O)c1O (stereo unspecified) | > 46 µM
O=C(O[C@H]1C[C@H]2CC3C[C@@H](C1)N2CC3=O)c1c[nH]c2ccccc12 | > 46 µM
CN[C@@H]1[C@@H](O)[C@@H](O[C@@H]2[C@H](O)[C@H](O[C@H]3OC(CN)=CC[C@H]3N)[C@@H](N)C[C@H]2N)OC[C@]1(C)O | > 46 µM
COc1ccc(C(=O)c2ccc(C)cc2)c(O)c1 | > 46 µM
N[C@@H](CSSC[C@H](N)C(=O)O)C(=O)O | > 46 µM
Cc1cccc(C)c1OCC(C)N.Cl (stereo unspecified) | > 46 µM

SMILES | IC50
CCOC(N)=O | > 46 µM
CC1(C)O[C@@H]2[C@@H](CO[C@@]3(COS(N)(=O)=O)OC(C)(C)O[C@@H]23)O1 | > 46 µM
CCOC(=O)[C@H](CCc1ccccc1)N[C@@H](C)C(=O)N1[C@H](C(=O)O)C[C@@H]2CCC[C@@H]21 | > 46 µM
Oc1c(Br)cc(Br)cc1Br | > 46 µM
NC(=O)c1cc[n+](CC2=C(C(=O)[O-])N3C(=O)[C@@H](NC(=O)Cc4cccs4)[C@H]3SC2)cc1 | > 46 µM
O=C(NCN1CCOCC1)c1cnccn1 | > 46 µM
Cl.O=C1c2cccc3c2[C@H](CCC3)CN1[C@@H]1CN2CCC1CC2 | > 46 µM
CCCCC[C@H](O)/C=C/[C@@H]1[C@H]2C/C(=C/CCCC(=O)[O-])O[C@H]2C[C@H]1O.[Na+] | > 46 µM
C#CC(C)(O)CC (stereo unspecified) | > 46 µM
O.O.O.O.O.O.O.O=S(=O)([O-])[O-].[Co+2] | > 46 µM
CN1CCN(CC(=O)N2c3ccccc3C(=O)Nc3cccnc32)CC1 | > 46 µM
CCN(CC)CCN1C(=O)CN=C(c2ccccc2F)c2cc(Cl)ccc21 | > 46 µM
C[C@@H](O)[C@H]1C(=O)N2C(C(=O)O)=C(S[C@@H]3CN[C@H](CNS(N)(=O)=O)C3)[C@H](C)[C@H]12 | > 46 µM
O=C(O)[C@@H]1C[C@H](CP(=O)(O)O)CCN1 | > 46 µM
O=S(C1=CC=CC2=C1NC[C@H](C)C2)(N[C@@H](CCCNC(N)=N)C(N3[C@@H]([C@](O)=O)C[C@H](C)CC3)=O)=O | > 46 µM
COC1=CC=C2[C@H]3Cc4ccc(OC)c5c4[C@@]2(CCN3C)[C@H]1O5 | > 46 µM
O=C([O-])COc1nn(Cc2ccccc2)c2ccccc12.[Na+] | > 46 µM
Clc1ccc(C(Cn2ccnc2)OCc2c(Cl)cccc2Cl)c(Cl)c1 (stereo unspecified) | > 46 µM
CC(=O)N=c1sc(S(N)(=O)=O)nn1C | > 46 µM
[H][C@]1(CC3)[C@]([H])4[C@]([C@@H]([C@@](C)=O)CC4)(C)CC[C@@]([H])1[C@]2(C)[C@]3([H])C[C@H](O)CC2 | > 46 µM
Cc1ncc(CO)c(CN)c1O.Cl.Cl | > 46 µM
CCCCCCOC(=O)c1cccnc1 | > 46 µM
CC(=O)Nc1ccc(C(=O)O)cc1 | > 46 µM
